Each block holds one compound with its values, some of them ahead of it.
Legend:
Format in all cases: physicochemical
[1] = Dissolution test of poorly-soluble substances, distilled water
Procedure: (§1) From initiation of the test, the mixed solution was stirred with a stirrer having a length of 15 mm. The rotation number of the stirrer was 120 rpm, and all of the tests were conducted in a thermostat at 37±0.5° C. Two types of test solutions, namely, distilled water and 2nd fluid for disintegration test (pH 6.8) of the Japanese Pharmacopoeia were used. As such 2nd fluid for disintegration test of the Japanese Pharmacopoeia, a solution prepared by diluting the 10-fold concentration solution of Kanto Kagaku Co., Ltd. with distilled water was used.
(§2) A comparative test was carried out in the same manner as that described above, with the exception that, instead of a substance with improved aqueous solubility coated with hydroxyapatite microparticles and with a pH adjuster and/or a surfactant, a poorly-soluble substance or the like was used in the same amount as the substance with improved aqueous solubility.
(§3) […] The thus sampled solution was centrifuged at 12,000 rpm for 5 minutes. Thereafter, the substance with improved aqueous solubility and hydroxyapatite microparticles, which had not been dissolved in the solution, were removed. In the case of the comparative test, the poorly-soluble substance or the like, which had not been dissolved in the solution, was removed. An aliquot of this supernatant was immediately frozen. The frozen sample was freeze-dried, and it was then used as a sample in the measurement of the amount of the substance with improved aqueous solubility, which had been dissolved in the test solution. The dissolved poorly-soluble substance was measured mainly using a dual wavelength absorption photometer.

[2] = Dissolution test of poorly-soluble substances, 2nd fluid for disintegration test (pH 6.8) of the Japanese Pharmacopoeia
Procedure: as §1, §2, §3

[3] = pH of aqueous solution after 60 minutes in dissolution test using distilled water
Procedure: Moreover, as described above, since the pH of a local portion that is contacted with a poorly-soluble substance is more important than the pH of a solution as a whole, when an acidic substance is dissolved, desired effects can be obtained even though the pH is not extremely high. It is sufficient if a pH adjuster is used such that the pH of an aqueous solution of a substance with improved aqueous solubility becomes pH 8 or less. […] Herein, the pH of an aqueous solution indicates a pH value that is measured 60 minutes after the addition of a target substance to 50 mL of distilled water in an amount 2 times larger than the substance dissolved in 360 minutes. More specifically, the pH of an aqueous solution indicates a pH value that is measured according to [Dissolution test of poorly-soluble substances] in the below-mentioned Examples.
as §1
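Further: Comparative example rows not the inventive coated formulation.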

SMILES: CC[C@H]1OC(=O)[C@H](C)[C@@H](O[C@H]2C[C@@](C)(OC)[C@@H](O)[C@H](C)O2)[C@H](C)[C@@H](O[C@@H]2O[C@H](C)C[C@H](N(C)C)[C@H]2O)[C@](C)(O)C[C@@H](C)C(=O)[C@H](C)[C@@H](O)[C@]1(C)O [9-1, Erythromycin]
Dissolved amount, elution time 3 min ([1]; Erythromycin): 635.0 µg/mL
Dissolved amount, elution time 10 min ([1]; Erythromycin): 861.6 µg/mL
Dissolved amount, elution time 30 min ([1]; Erythromycin): 944.7 µg/mL
Dissolved amount, elution time 120 min ([1]; Erythromycin): 927.7 µg/mL
Dissolved amount, elution time 360 min ([1]; Erythromycin): 846.1 µg/mL
Dissolved amount, elution time 3 min ([2]; Erythromycin): 2556.3 µg/mL
Dissolved amount, elution time 10 min ([2]; Erythromycin): 4984.2 µg/mL
Dissolved amount, elution time 30 min ([2]; Erythromycin): 5103.6 µg/mL
Dissolved amount, elution time 120 min ([2]; Erythromycin): 5904.1 µg/mL
Dissolved amount, elution time 360 min ([2]; Erythromycin): 6044.7 µg/mL
pH at 60 minutes after dissolution ([3]; Erythromycin): 9.6

SMILES: CCN1CCCC1CNC(=O)c1cc(S(N)(=O)=O)ccc1OC (centres unmarked) [6-4, Sulpiride]
pH at 60 minutes after dissolution ([3]; Sulpiride): 9.3

SMILES: COc1cc(Cc2cnc(N)nc2N)cc(OC)c1OC [4-3, Trimethoprim]
Dissolved amount, elution time 1 min [1]: 354.6 µg/mL
Dissolved amount, elution time 3 min [1]: 531.0 µg/mL
Dissolved amount, elution time 10 min [1]: 685.0 µg/mL
Dissolved amount, elution time 30 min [1]: 677.9 µg/mL
Dissolved amount, elution time 60 min [1]: 671.8 µg/mL
Dissolved amount, elution time 180 min [1]: 672.0 µg/mL
Dissolved amount, elution time 360 min [1]: 656.3 µg/mL
Dissolved amount, elution time 1 min [2]: 807.8 µg/mL
Dissolved amount, elution time 3 min [2]: 1160.4 µg/mL
Dissolved amount, elution time 10 min [2]: 1291.7 µg/mL
Dissolved amount, elution time 30 min [2]: 1344.0 µg/mL
Dissolved amount, elution time 60 min [2]: 1324.8 µg/mL
Dissolved amount, elution time 180 min [2]: 1296.5 µg/mL
Dissolved amount, elution time 360 min [2]: 1321.9 µg/mL
pH at 60 minutes after dissolution ([3]; Trimethoprim): 8.4

SMILES: CC(C)(Sc1cc(C(C)(C)C)c(O)c(C(C)(C)C)c1)Sc1cc(C(C)(C)C)c(O)c(C(C)(C)C)c1 [5-2, Probucol]
Dissolved amount, elution time 1 min ([1]; Probucol): 0.7 µg/mL
Dissolved amount, elution time 3 min ([1]; Probucol): 2.7 µg/mL
Dissolved amount, elution time 10 min ([1]; Probucol): 3.7 µg/mL
Dissolved amount, elution time 30 min ([1]; Probucol): 6.1 µg/mL
Dissolved amount, elution time 60 min ([1]; Probucol): 7.6 µg/mL
Dissolved amount, elution time 180 min ([1]; Probucol): 8.3 µg/mL
Dissolved amount, elution time 360 min ([1]; Probucol): 9.7 µg/mL
Dissolved amount, elution time 1 min ([2]; Probucol): 4.7 µg/mL
Dissolved amount, elution time 3 min ([2]; Probucol): 14.9 µg/mL
Dissolved amount, elution time 10 min ([2]; Probucol): 19.9 µg/mL
Dissolved amount, elution time 30 min ([2]; Probucol): 21.2 µg/mL
Dissolved amount, elution time 60 min ([2]; Probucol): 21.8 µg/mL
Dissolved amount, elution time 180 min ([2]; Probucol): 26.8 µg/mL
Dissolved amount, elution time 360 min ([2]; Probucol): 28.0 µg/mL

Other lines, results leading:

Dissolved amount, elution time 1 min [1]: 48.8 µg/mL
Dissolved amount, elution time 3 min [1]: 49.3 µg/mL
Dissolved amount, elution time 10 min [1]: 51.3 µg/mL
Dissolved amount, elution time 30 min [1]: 56.6 µg/mL
Dissolved amount, elution time 60 min [1]: 50.5 µg/mL
Dissolved amount, elution time 180 min [1]: 52.9 µg/mL
Dissolved amount, elution time 360 min [1]: 68.6 µg/mL
Dissolved amount, elution time 1 min [2]: 637.3 µg/mL
Dissolved amount, elution time 3 min [2]: 1597.2 µg/mL
Dissolved amount, elution time 10 min [2]: 2041.9 µg/mL
Dissolved amount, elution time 30 min [2]: 2141.1 µg/mL
Dissolved amount, elution time 60 min [2]: 2449.4 µg/mL
Dissolved amount, elution time 180 min [2]: 2432.9 µg/mL
Dissolved amount, elution time 360 min [2]: 2429.1 µg/mL
pH at 60 minutes after dissolution ([3]; Tolbutamide): 4.3
SMILES: CCCCNC(=O)NS(=O)(=O)c1ccc(C)cc1 [1-5, Tolbutamide]

Dissolved amount, elution time 3 min ([1]; Alacepril): 526.2 µg/mL
Dissolved amount, elution time 10 min ([1]; Alacepril): 805.6 µg/mL
Dissolved amount, elution time 30 min ([1]; Alacepril): 931.2 µg/mL
Dissolved amount, elution time 120 min ([1]; Alacepril): 994.9 µg/mL
Dissolved amount, elution time 360 min ([1]; Alacepril): 996.5 µg/mL
Dissolved amount, elution time 3 min ([2]; Alacepril): 2311.1 µg/mL
Dissolved amount, elution time 10 min ([2]; Alacepril): 2514.7 µg/mL
Dissolved amount, elution time 30 min ([2]; Alacepril): 2525.0 µg/mL
Dissolved amount, elution time 120 min ([2]; Alacepril): 2588.4 µg/mL
pH at 60 minutes after dissolution ([3]; Alacepril): 2.9
SMILES: CC(=O)SC[C@@H](C)C(=O)N1CCC[C@H]1C(=O)N[C@@H](Cc1ccccc1)C(=O)O [8-1, Alacepril]

Dissolved amount, elution time 1 min [1]: 1162.9 µg/mL
Dissolved amount, elution time 3 min [1]: 1502.6 µg/mL
Dissolved amount, elution time 10 min [1]: 1416.8 µg/mL
Dissolved amount, elution time 180 min [1]: 1509.8 µg/mL
Dissolved amount, elution time 360 min [1]: 1497.4 µg/mL
Dissolved amount, elution time 3 min [2]: 2286.6 µg/mL
Dissolved amount, elution time 10 min [2]: 2541.7 µg/mL
Dissolved amount, elution time 30 min [2]: 2600.9 µg/mL
Dissolved amount, elution time 60 min [2]: 2667.9 µg/mL
Dissolved amount, elution time 180 min [2]: 2509.7 µg/mL
Dissolved amount, elution time 360 min [2]: 2410.4 µg/mL
pH at 60 minutes after dissolution ([3]; Famotidine): 8.4
SMILES: NC(N)=Nc1nc(CSCCC(N)=NS(N)(=O)=O)cs1 [3-4, Famotidine]

Dissolved amount, elution time 3 min ([1]; Haloperidol): 8.2 µg/mL
Dissolved amount, elution time 10 min ([1]; Haloperidol): 10.0 µg/mL
Dissolved amount, elution time 30 min ([1]; Haloperidol): 11.3 µg/mL
Dissolved amount, elution time 120 min ([1]; Haloperidol): 12.8 µg/mL
Dissolved amount, elution time 360 min ([1]; Haloperidol): 13.1 µg/mL
Dissolved amount, elution time 3 min ([2]; Haloperidol): 23.9 µg/mL
Dissolved amount, elution time 10 min ([2]; Haloperidol): 35.6 µg/mL
Dissolved amount, elution time 30 min ([2]; Haloperidol): 45.2 µg/mL
Dissolved amount, elution time 120 min ([2]; Haloperidol): 50.1 µg/mL
Dissolved amount, elution time 360 min ([2]; Haloperidol): 48.9 µg/mL
pH at 60 minutes after dissolution ([3]; Haloperidol): 8.1
SMILES: O=C(CCCN1CCC(O)(c2ccc(Cl)cc2)CC1)c1ccc(F)cc1 [10-1, Haloperidol]

From patent US9248103B2, “Method for improving water solubility of slightly soluble substance” (Kabushiki Kaisha Sangi, priority 2012, dated 2016)
